Where two headings read alike, the source gives them in different places.
What was measured:
HBV core protein = target: T1, HBV core protein (Hepatitis B virus genotype D subtype ayw, UniProt P03146); experiment: Cellular HBV core high-content imaging assay (cytosolic and nuclear aggregated core / core speckling); type: cell-based; details: HepG2.117 cells; for dose-dependent cytoplasmic and nuclear core speckling phenotype / Cytosolic aggregated core Median max effect at 25 μM (Range) / Nuclear aggregated core Median max effect at 25 μM (Range) / EC50: 72 h; for dose-dependent cytoplasmic and nuclear core speckling phenotype: 11 concentrations, robustness test; for Cytosolic aggregated core Median max effect at 25 μM (Range) / Nuclear aggregated core Median max effect at 25 μM (Range): normalized to 1 μM GLS-4 high control (100% effect); for EC50: median over inter-/intra-assay plate groups
T1 construct: withdrawal of doxycycline from the cell culture medium which results in expression of core and polymerase HBV proteins; expressed in transfected cells; host or cells: HepG2.117 (human hepatoma-derived, stably transfected with the HBV genome, Tet-off)
T1 sequence (P03146 whole entry): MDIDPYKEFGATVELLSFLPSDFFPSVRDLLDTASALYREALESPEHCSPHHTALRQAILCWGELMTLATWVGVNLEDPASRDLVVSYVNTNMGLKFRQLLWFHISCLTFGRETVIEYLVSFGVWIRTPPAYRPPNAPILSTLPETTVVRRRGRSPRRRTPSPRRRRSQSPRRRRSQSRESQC
Description: After trypsinization, HepG2.117 cells were washed once with phosphate buffered saline (PBS). Cells were centrifuged at 1,500 rpm for 5 minutes and divided in two fractions. The fraction that was used for the core-suppressed HepG2.117 cell controls (background control, BC) was resuspended in DMEM supplemented with 2% Tet-system-approved fetal calf serum (FCS; Clontech), 2 mM alanyl-glutamine, lx non-essential amino acids (NEAA; Sigma-Aldrich), and 100 ng/ml doxycycline to suppress core expression. The other fraction was resuspended in DMEM supplemented with 2% Tet-system-approved FCS, 2 mM alanyl-glutamine, and 1×NEAA and used for sample wells, the core-expressing low control wells (LC) and aggregated core-expressing high control wells (HC). 2,000 cells per well were seeded for the assay validation, while 1,500 cells per well were seeded in the cellular screening campaign. Test compound-containing 384-well black poly-D-lysine CellCarrier tissue culture treated plates with an optically clear bottom (Perkin Elmer, Waltham, Mass.) were used. Test compounds were used in dose range in the presence of 1% dimethyl sulfoxide (DMSO). Aggregated core expressing high control wells were treated with 1 μM GLS-4. Compound plates with seeded cells were incubated for 72 h at 37° C. and 5% CO2.
After about 72 hours, cells were fixed with 5% ultra-pure methanol-free formaldehyde (Polysciences, Warrington, Pa.) for 15 minutes and washed three times with PBS. Next, cells were permeabilized for 30 minutes using 0.5% Triton-X-100 (Sigma-Aldrich) dissolved in PBS and washed again three times with PBS. Cells were incubated for 1 hour with PBS containing 5% bovine serum albumin to block Fc receptors. Core protein was detected with primary monoclonal mouse core antibody at a concentration of 666 ng/ml or polyclonal rabbit core antibody at a concentration of 65 μg/ml in PBS containing 5% bovine serum albumin (Sigma-Aldrich). After overnight incubation at 4° C., cells were washed three times with PBS and primary antibody was detected with 2 μg/ml Alexa Fluor-488 goat anti-mouse or goat anti-rabbit secondary antibody. Nuclei and cytoplasm were co-stained using 2 μg/ml Hoechst 33258 (nuclei) and 500 ng/ml HCS CellMask™ Deep Red (entire cells) solution. After 1 hour of incubation at room temperature, cells were washed three times with PBS.
The Opera Phenix™ high-content screening system (Perkin Elmer) was used for automated imaging. A 405-nm laser with 100% power was used with an exposure time of 200 ms to excite Hoechst 33258 (emitting its fluorescent light at 461-nm); emission light was captured using a 435/480 nm emission filter. Simultaneously, HCS CellMask™ Deep Red signal (emitting its fluorescent light at 655-nm) was excited by a 635-nm laser with a 25 ms exposure time and a laser power reduced to 25%; red emitted light was captured using an emission filter of 650/760 nm. Alexa Fluor 488 fluorophores were excited using a 488-nm laser with 100% power and an exposure of 200 ms, whereby the emission filter 500/550 nm was chosen. This detection was performed independently from Hoechst and HCS CellMask™ Deep Red as the fluorescence spectrum of Hoechst overlaps with that of Alexa Fluor-488. A 20× water immersion objective with a numerical aperture of 1.0 was used for imaging of four fields per well.
Images were analyzed with a custom Acapella (Perkin Elmer) script. Nuclei identification was based on the Hoechst 33258 channel, cytoplasm segmentation was based on the HCS CellMask™ Deep Red channel and core protein intensity and texture features were calculated using the Alexa Fluor 488 channel. The cell count feature was used as a measure for cytotoxicity. […] The texture feature “SERSpot” at scale 1.0 was calculated in the nuclear and cytoplasm region of each cell to quantify aggregated core and averaged across all cells on the well-level.

[1] = target: T2, intracellular capsids (HBV core protein) (Hepatitis B virus genotype D subtype ayw, UniProt P03146); experiment: Capsid depletion assay: native polyacrylamide gel electrophoresis with immunoblotting for detection of capsids; type: cell-based; details: HepG2.117 cells treated for 3 days, native PAGE/western blot
T2 construct: withdrawal of doxycycline from the cell culture medium which results in expression of core and polymerase HBV proteins; expressed in transfected cells; host or cells: HepG2.117 (human hepatoma-derived, stably transfected with the HBV genome, Tet-off)
T2 sequence (P03146 whole entry): as above
Description: HepG2.117 cells cultured in 2% serum containing assay medium as described above were plated in a 12-well plate at a cell density of 500,000 cells/well and incubated at 37° C. and 5% CO2. After overnight incubation, cells were treated with test compound or DMSO for 72 hours at 37° C. and 5% CO2. Afterwards, cells were washed once with PBS and lysed with 300 μl 10 mM Tris-HCl (pH 7.6), 100 mM NaCl, 1 mM ethylenediaminetetraacetic acid (EDTA), and 0.1% NP-40 supplemented with 1× Halt™ Protease Inhibitor Cocktail (Thermo Fisher Scientific, Waltham, Mass.). After lysis of the cells at 37° C. for 10 minutes, cell debris was discarded by centrifugation at 5,000×g for 10 minutes. Supernatant was collected and protein concentration was determined using the DC (detergent compatible) protein assay (Bio-Rad, Hercules, Calif.). Of protein/sample, 2.2 μg was loaded on a NativePAGE™ Novex® 3-12% Bis-Tris Gel (Invitrogen, Waltham, Mass.) with electrophoresis performed at room temperature using NativePAGE™ Running Buffer and NativePAGE™ Cathode Additive. Proteins were transferred using the Novex® iBlot® Transfer Stack, PVDF, regular size kit followed by a standard immunoblotting procedure using primary polyclonal rabbit core antibody at a concentration of 16.25 μg/ml with overnight incubation. […]

Row | SMILES | dose-dependent cytoplasmic and nuclear core speckling phenotype (HBV core protein) | Cytosolic aggregated core Median max effect at 25 μM (Range) (HBV core protein) | Nuclear aggregated core Median max effect at 25 μM (Range) (HBV core protein) | EC50 (HBV core protein; read-out: Cytosolic aggregated core Median EC50 (μM) (Range)) [µM] | EC50 (HBV core protein; read-out: Nuclear aggregated core Median EC50 (μM) (Range)) [µM] | phenotypic core immunostaining pattern (HBV core protein; core expressing (-DOX), FIG. 2A/2B) | depletion of intracellular capsids [1]
1 | COC(=O)C1=C(CN2CCOCC2)NC(c2ccccn2)=NC1c1ccc(F)cc1Cl (stereo not shown) [Compound 5] | dose-dependent cytoplasmic and nuclear core speckling phenotype was observed | 72.1 | 86.2 | 0.078 | 0.085 | – | –
2 | COC(=O)C1=C(C)NC(c2ncc(F)cc2F)=N[C@H]1c1ccc(F)cc1Cl [Compound 14] | dose-dependent cytoplasmic and nuclear core speckling phenotype was observed | 68.1 | 139.2 | – | – | aggregated dot-like pattern of core proteins | dose-dependent depletion of intracellular capsids

— patent US20230228736A1, “IN VITRO HBV CORE PROTEIN ASSAY” (Janssen Sciences Ireland Unlimited Company, priority 2020, published 2023)
